According to patent US20260001928A1 (CORTERIA PHARMACEUTICALS, priority 2022, published 2026):
*1 amine or outer side, *2 acyl side, *3 side chain or, on linkers, in order; H or OH if unused. Where a SMILES comes first, the peptide text is derived from it. Side-chain parts run from the residue outwards. [ ]: non-standard residue; d: D form. The star is where a group is joined. C20 diacid = O=C(O)CCCCCCCCCCCCCCCCCCC(=O)*; C18 diacid = O=C(O)CCCCCCCCCCCCCCCCC(=O)*; γGlu = O=C(O)[C@H](CCC(=O)[*:2])N[*:1]; NMeI = CC[C@H](C)[C@H](NC)C(=O)O; αMeL = CC(C)C[C@](C)(N)C(=O)O; AEEA = NCCOCCOCC(=O)O; Aib = CC(C)(N)C(=O)O

Experiments:
human CRF2a receptor = target: T1, human CRF2a receptor (Homo sapiens, UniProt Q13324); experiment: Activity at human CRF2a receptor, cAMP functional assay in TeloHEAC cells; assay type: cell-based; details: TeloHEAC cells stably expressing human CRF2a receptor, relative to urocortin 2 (100 nM = 100%)
T1 construct: expressed in transfected cells; host or cells: TeloHEAC cells
T1 sequence (Q13324 1-411): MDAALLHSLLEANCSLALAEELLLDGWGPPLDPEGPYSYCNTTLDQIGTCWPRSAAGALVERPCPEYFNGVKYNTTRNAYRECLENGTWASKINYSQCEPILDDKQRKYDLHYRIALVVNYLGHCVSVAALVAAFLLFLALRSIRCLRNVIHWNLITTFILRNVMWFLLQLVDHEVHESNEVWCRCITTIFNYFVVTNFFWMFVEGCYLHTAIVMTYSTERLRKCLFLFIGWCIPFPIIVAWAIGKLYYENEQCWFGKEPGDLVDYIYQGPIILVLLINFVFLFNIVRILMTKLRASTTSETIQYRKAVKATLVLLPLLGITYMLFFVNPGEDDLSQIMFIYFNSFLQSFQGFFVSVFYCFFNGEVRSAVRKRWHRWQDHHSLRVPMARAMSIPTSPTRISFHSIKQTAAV
In short: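 TeloHEAC cells stably expressing human CRF2a (10000 cells/well, suspended in HBSS/20 mM HEPES with 2 mM IBMX) were exposed to compounds for 30 min at 37 °C. cAMP was read as the 665/620 nm fluorescence ratio after 1 h at room temperature. EC50 was derived relative to 100 nM urocortin 2, set as 100%.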

CFR1R receptor = target: T2, CFR1R receptor (Homo sapiens, UniProt P34998); experiment: Activity at anti-target CFR1R receptor, cAMP assay in CRF1R-overexpression CHO-K1 cells; assay type: cell-based; details: 100% = Sauvagine at 100 nM; for EC50: cAMP
T2 construct: host or cells: CHO-K1 (clone 2)
T2 sequence (P34998 24-415): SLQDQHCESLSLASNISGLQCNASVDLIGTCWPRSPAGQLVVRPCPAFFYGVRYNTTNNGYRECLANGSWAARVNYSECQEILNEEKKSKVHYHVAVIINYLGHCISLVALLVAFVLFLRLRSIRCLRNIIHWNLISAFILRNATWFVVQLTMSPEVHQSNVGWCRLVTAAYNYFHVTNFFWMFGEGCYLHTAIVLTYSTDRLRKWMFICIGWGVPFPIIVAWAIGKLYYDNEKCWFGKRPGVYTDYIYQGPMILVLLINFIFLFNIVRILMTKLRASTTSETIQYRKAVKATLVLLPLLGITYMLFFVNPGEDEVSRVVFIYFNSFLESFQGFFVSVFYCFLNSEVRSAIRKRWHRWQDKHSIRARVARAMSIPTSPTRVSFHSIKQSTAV
In short: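 Clone 2; cryopreserved stocks (10% DMSO); 4000 cells/well final; 100% activation = Sauvagine 100 nM; otherwise as TeloHAEC protocol.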

[1] = In vitro plasma stability, human plasma; assay type: in vitro ADME; parameters: dose or concentration left out as unconfirmed; details: Human PLM, 37° C.
Experimental: In vitro plasma metabolic stability was studied in male Sprague Dawley rats and human. Test compounds were incubated at 3 M for 2 hours at 37° C. At each time point (0, 0.25, 1 and 2 h), samples were prepared for analysis by means of a single step protein precipitation technique by adding 150 μL of ethanol, 0.1% formic acid to 50 μL aliquots of plasma. Samples were mixed by vortex for homogeneity and then subjected to centrifugation at 14000 rpm for 15 min. The supernatant (100 μL) was collected, diluted with 100 μL of water, 0.1% formic acid and analyzed by LC-HRMS (TripleTOF 6600+, AB Sciex). For each test compound, the area ratios at each time point were compared to the 0 h area ratio and converted to a percentage remaining.

Sprague Dawley rats = experiment: Effect on systolic blood pressure, telemetry in Sprague Dawley rats; assay type: in vivo, rat; details: 0.1 mg/kg SC; for Systolic blood pressure (Mean) % change from baseline, 8 h / Systolic blood pressure (Mean) % change from baseline, 12 h / Systolic blood pressure (Mean) % change from baseline, 24 h: n=2; for Duration of action: last time point with an effect on BP still observed
In short: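 Values are % change from a 1 h pre-dose baseline in systolic pressure, tracked by telemetry for up to 48 hours after a single 0.1 mg/kg subcutaneous dose. Rats (Sprague Dawley, n=2 per peptide) carried aortic catheters and recovered at least 10 days post-surgery; duration of action marks the last time point still showing an effect.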

[2] = Pharmacokinetics in male Sprague Dawley rats after subcutaneous administration; assay type: in vivo; details: plasma, rat

Row | Compound | EC50 (human CRF2a receptor) [nM] | Emax (% I) (CFR1R receptor) | EC50 (CFR1R receptor) [nM] | remaining at 2 h [1] [%] | Systolic blood pressure (Mean) % change from baseline, 8 h (Sprague Dawley rats) [%] | Systolic blood pressure (Mean) % change from baseline, 12 h (Sprague Dawley rats) [%] | Systolic blood pressure (Mean) % change from baseline, 24 h (Sprague Dawley rats) [%] | Duration of action (Sprague Dawley rats) [h] | AUC(0-t) ([2]; IV, 0.05 mg/kg) [ng·h/mL] | half-life ([2]; IV, 0.05 mg/kg) [h] | Tmax ([2]; SC, 0.1 mg/kg) [h] | half-life ([2]; SC, 0.1 mg/kg) [h]
1 | CC[C@H](C)[C@H](NC)C(=O)N[C@H](C(=O)N[C@@H](CC(C)C)C(=O)N[C@@H](CO)C(=O)N[C@@H](CC(C)C)C(=O)N[C@@H](CC(=O)O)C(=O)N[C@@H](C(=O)N1CCC[C@H]1C(=O)N[C@H](C(=O)N[C@@H](CCCCN)C(=O)N[C@@H](CC(C)C)C(=O)N[C@@H](CCCCNC(=O)COCCOCCNC(=O)COCCOCCNC(=O)CC[C@H](NC(=O)CCCCCCCCCCCCCCCCC(=O)O)C(=O)O)C(=O)N[C@@H](CCCCN)C(=O)N[C@H](C(=O)N[C@@H](CC(C)C)C(=O)N[C@@H](CC(C)C)C(=O)N[C@@H](CCC(=O)O)C(=O)N[C@@H](CCC(N)=O)C(=O)N[C@@H](CCC(=O)O)C(=O)N[C@@H](CCCCN)C(=O)N[C@@H](CCC(N)=O)C(=O)N[C@@H](CCCCN)C(=O)N[C@@H](CCCCN)C(=O)N[C@@H](CCC(N)=O)C(=O)N[C@@H](CCCNC(=N)N)C(=O)N[C@@H](CCC(=O)O)C(=O)N[C@@H](CCC(N)=O)C(=O)N[C@@H](C)C(=O)N[C@@H](CCC(=O)O)C(=O)N[C@H](C(=O)N[C@@H](CC(N)=O)C(=O)NC(C)(C)C(=O)N[C@@H](CCC(N)=O)C(=O)N[C@H](C(=O)N[C@@H](CC(C)C)C(=O)N[C@@H](C)C(=O)N[C@@H](CCC(N)=O)C(=O)N[C@H](C(N)=O)C(C)C)[C@@H](C)CC)[C@@H](C)O)[C@@H](C)CC)[C@@H](C)CC)C(C)C)C(C)C [compound 118] (H-[NMeI]VLSLD[dV]PIKLK([AEEA-AEEA-γGlu-C18 diacid])KILLEQEKQKKQREQAETN[Aib]QILAQV-NH2) | 0.6 | 7 | > 250 | 91 | −24 | −17 | −4 | >24 | 3900 | 5.2 | 8 | 5.2
2 | CC[C@H](C)[C@H](NC(C)=O)C(=O)N[C@H](C(=O)N[C@@H](CC(C)C)C(=O)N[C@@H](CO)C(=O)N[C@@H](CC(C)C)C(=O)N[C@@H](CC(=O)O)C(=O)N[C@@H](C(=O)N1CCC[C@H]1C(=O)N[C@H](C(=O)N[C@@H](CCCCN)C(=O)N[C@@](C)(CC(C)C)C(=O)N[C@@H](CCCCNC(=O)COCCOCCNC(=O)COCCOCCNC(=O)CC[C@H](NC(=O)CCCCCCCCCCCCCCCCC(=O)O)C(=O)O)C(=O)N[C@@H](CCCCN)C(=O)N[C@H](C(=O)N[C@@H](CC(C)C)C(=O)N[C@@H](CC(C)C)C(=O)N[C@@H](CCC(=O)O)C(=O)N[C@@H](CCC(N)=O)C(=O)N[C@@H](CCC(=O)O)C(=O)N[C@@H](CCCCN)C(=O)N[C@@H](CCC(N)=O)C(=O)N[C@@H](CCCCN)C(=O)N[C@@H](CCCCN)C(=O)N[C@@H](CCC(N)=O)C(=O)N[C@@H](CCCNC(=N)N)C(=O)N[C@@H](CCC(=O)O)C(=O)N[C@@H](CCC(N)=O)C(=O)N[C@@H](C)C(=O)N[C@@H](CCC(=O)O)C(=O)N[C@H](C(=O)N[C@@H](CC(N)=O)C(=O)NC(C)(C)C(=O)N[C@@H](CCC(N)=O)C(=O)N[C@H](C(=O)N[C@@H](CC(C)C)C(=O)N[C@@H](C)C(=O)N[C@@H](CCC(N)=O)C(=O)N[C@H](C(N)=O)C(C)C)[C@@H](C)CC)[C@@H](C)O)[C@@H](C)CC)[C@@H](C)CC)C(C)C)C(C)C [compound 110] (Ac-IVLSLD[dV]PIK[αMeL]K([AEEA-AEEA-γGlu-C18 diacid])KILLEQEKQKKQREQAETN[Aib]QILAQV-NH2) | 0.3 | 9 | > 250 | 97 | −19 | −10 | −6 | 20 | 3880 | 4.8 | 5 | 5
3 | CC[C@H](C)[C@H](NC)C(=O)N[C@H](C(=O)N[C@@H](CC(C)C)C(=O)N[C@@H](CO)C(=O)N[C@@H](CC(C)C)C(=O)N[C@@H](CC(=O)O)C(=O)N[C@@H](C(=O)N1CCC[C@H]1C(=O)N[C@H](C(=O)N[C@@H](CCCCN)C(=O)N[C@@H](CC(C)C)C(=O)N[C@@H](CCCCNC(=O)CC[C@H](NC(=O)CCCCCCCCCCCCCCCCCCC(=O)O)C(=O)O)C(=O)N[C@@H](CCCCN)C(=O)N[C@H](C(=O)N[C@@H](CC(C)C)C(=O)N[C@@H](CC(C)C)C(=O)N[C@@H](CCC(=O)O)C(=O)N[C@@H](CCC(N)=O)C(=O)N[C@@H](CCC(=O)O)C(=O)N[C@@H](CCCCN)C(=O)N[C@@H](CCC(N)=O)C(=O)N[C@@H](CCCCN)C(=O)NC(C)(C)C(=O)N[C@@H](CCC(N)=O)C(=O)N[C@@H](CCCNC(=N)N)C(=O)N[C@@H](CCC(=O)O)C(=O)N[C@@H](CCC(N)=O)C(=O)N[C@@H](C)C(=O)N[C@@H](CCC(=O)O)C(=O)N[C@H](C(=O)N[C@@H](CC(N)=O)C(=O)NC(C)(C)C(=O)N[C@@H](CCC(N)=O)C(=O)N[C@H](C(=O)N[C@@H](CC(C)C)C(=O)N[C@@H](C)C(=O)N[C@@H](CCC(N)=O)C(=O)N[C@H](C(N)=O)C(C)C)[C@@H](C)CC)[C@@H](C)O)[C@@H](C)CC)[C@@H](C)CC)C(C)C)C(C)C [compound 215] (H-[NMeI]VLSLD[dV]PIKLK([γGlu-C20 diacid])KILLEQEKQK[Aib]QREQAETN[Aib]QILAQV-NH2) | 0.12 | 19 | > 250 | – | −12 | −14 | −16 | >24 | 7320 | 8 | 7 | 10
4 | CC[C@H](C)[C@H](NC(C)=O)C(=O)N[C@H](C(=O)N[C@@H](CC(C)C)C(=O)N[C@@H](CO)C(=O)N[C@@H](CC(C)C)C(=O)N[C@@H](CC(=O)O)C(=O)N[C@@H](C(=O)N1CCC[C@H]1C(=O)N[C@H](C(=O)N[C@@H](CCCCN)C(=O)N[C@@H](CC(C)C)C(=O)N[C@@H](CCCCNC(=O)CC[C@H](NC(=O)CCCCCCCCCCCCCCCCCCC(=O)O)C(=O)O)C(=O)N[C@@H](CCCCN)C(=O)N[C@H](C(=O)N[C@@H](CC(C)C)C(=O)N[C@@H](CC(C)C)C(=O)N[C@@H](CCC(=O)O)C(=O)N[C@@H](CCC(N)=O)C(=O)N[C@@H](CCC(=O)O)C(=O)N[C@@H](CCCCN)C(=O)N[C@@H](CCC(N)=O)C(=O)N[C@@H](CCCCN)C(=O)N[C@@H](CCCCN)C(=O)N[C@@H](CCC(N)=O)C(=O)N[C@@H](CCCNC(=N)N)C(=O)N[C@@H](CCC(=O)O)C(=O)N[C@@H](CCC(N)=O)C(=O)N[C@@H](C)C(=O)N[C@@H](CCC(=O)O)C(=O)N[C@H](C(=O)N[C@@H](CC(N)=O)C(=O)NC(C)(C)C(=O)N[C@@H](CCC(N)=O)C(=O)N[C@H](C(=O)N[C@@H](CC(C)C)C(=O)N[C@@H](C)C(=O)N[C@@H](CCC(N)=O)C(=O)N[C@H](C(N)=O)C(C)C)[C@@H](C)CC)[C@@H](C)O)[C@@H](C)CC)[C@@H](C)CC)C(C)C)C(C)C [compound 206] (Ac-IVLSLD[dV]PIKLK([γGlu-C20 diacid])KILLEQEKQKKQREQAETN[Aib]QILAQV-NH2) | 0.11 | 42 | – | – | −12 | −16 | −13 | >24 | 8100 | 8 | 8 | 8
